What is called IC50 is the concentration that gives 50% inhibition.

The experiment concerns the target T1, Poly [ADP-ribose] polymerase tankyrase-1 (Homo sapiens, UniProt O95271).
T1 sequence (O95271 whole entry): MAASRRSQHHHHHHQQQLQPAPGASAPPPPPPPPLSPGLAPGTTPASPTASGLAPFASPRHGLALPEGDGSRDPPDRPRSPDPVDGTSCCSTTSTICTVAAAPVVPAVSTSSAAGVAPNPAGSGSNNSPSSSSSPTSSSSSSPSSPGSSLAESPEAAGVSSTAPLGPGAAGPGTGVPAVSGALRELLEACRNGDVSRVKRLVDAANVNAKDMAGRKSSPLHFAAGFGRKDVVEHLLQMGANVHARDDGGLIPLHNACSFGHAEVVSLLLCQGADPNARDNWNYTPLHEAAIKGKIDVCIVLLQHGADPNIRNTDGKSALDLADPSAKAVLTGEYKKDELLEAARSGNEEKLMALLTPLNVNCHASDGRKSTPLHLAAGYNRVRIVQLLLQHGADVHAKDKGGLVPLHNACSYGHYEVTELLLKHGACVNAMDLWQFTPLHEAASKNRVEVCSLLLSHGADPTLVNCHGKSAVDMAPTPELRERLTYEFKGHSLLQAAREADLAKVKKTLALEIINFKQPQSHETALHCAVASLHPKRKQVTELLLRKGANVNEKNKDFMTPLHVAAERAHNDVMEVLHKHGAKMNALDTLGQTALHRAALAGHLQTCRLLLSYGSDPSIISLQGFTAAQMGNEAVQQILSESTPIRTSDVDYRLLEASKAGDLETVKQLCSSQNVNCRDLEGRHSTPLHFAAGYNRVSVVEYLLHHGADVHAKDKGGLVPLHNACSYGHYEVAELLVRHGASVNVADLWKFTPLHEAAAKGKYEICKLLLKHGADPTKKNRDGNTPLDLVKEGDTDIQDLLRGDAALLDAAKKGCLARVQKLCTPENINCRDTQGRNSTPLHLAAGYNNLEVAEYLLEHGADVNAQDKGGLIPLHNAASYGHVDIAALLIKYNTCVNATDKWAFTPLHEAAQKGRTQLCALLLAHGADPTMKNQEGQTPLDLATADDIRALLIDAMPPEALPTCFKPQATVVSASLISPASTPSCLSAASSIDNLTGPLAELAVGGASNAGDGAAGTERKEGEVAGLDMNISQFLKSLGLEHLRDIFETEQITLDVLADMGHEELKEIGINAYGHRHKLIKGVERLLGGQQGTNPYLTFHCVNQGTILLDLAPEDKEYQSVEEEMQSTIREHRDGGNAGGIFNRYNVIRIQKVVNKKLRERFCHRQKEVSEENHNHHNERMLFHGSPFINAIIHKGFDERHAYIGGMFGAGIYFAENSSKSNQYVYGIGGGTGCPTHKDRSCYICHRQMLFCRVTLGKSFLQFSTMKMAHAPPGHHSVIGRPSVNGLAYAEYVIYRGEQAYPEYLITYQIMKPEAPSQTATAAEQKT
Kind of experiment: Tankyrase Biochemical Assays: The tankyrase 1 biochemical activity of the compounds was assayed in the following assay buffer (50 mM MOPS pH7.5, 100 mM NaCl, […] MgCl2, 0.01% Tween-20, 0.05% BSA, and 1 mM DTT) as follows: […] of 6×HIS-tankyrase 1 (1091-1325) was incubated in the presence of compound (DMSO […] final) in a Perkin Elmer 384 well Proxiplate Plus™ (cat. no. 6008289) with 400 n.
On to `CC1(C)OC(=O)N([C@H]2CC[C@H](NC(=O)c3csc(-c4ccccc4)n3)CC2)[C@H]1c1ccccc1`, for which the IC50 was 5.18 nM.
`CC1(C)OC(=O)N([C@H]2CC[C@H](NC(=O)c3ccnc(-c4ccccc4)n3)CC2)[C@H]1c1ccccc1`: the IC50 was 11.4 nM.
For `CC1(C)OC(=O)N(c2ccc(-c3cc(-c4ncco4)c[nH]c3=O)cc2)[C@H]1c1ccccc1`, the IC50 is 167 nM.
